Laboratory results published in paper PMC8268581, “Identification of 3,4-Dihydro-2H,6H-pyrimido[1,2-c][1,3]benzothiazin-6-imine Derivatives as Novel Selective Inhibitors of Plasmodium falciparum Dihydroorotate Dehydrogenase” (International Journal of Molecular Sciences, 2021).

Assays:
PfDHODH = molecular target: T1, PfDHODH (Plasmodium falciparum, UniProt Q08210); assay: PfDHODH inhibition assay (DCIP end-point, 384-well); format: biochemical; details: recombinant tag-free PfDHODH, 20 min, serial dilutions 0.0007-22.7 µM; read-out: IC50 DHODH Pf
T1 construct: encoding amino acid residues 158 to 569 fused to a His6-SUMO tag in its N-terminus; His6-SUMO (N, cleaved yes); made in house; host or cells: E. coli BL21 Star (DE3), pETSUMO/PfDHODH
T1 sequence (Q08210 158-569): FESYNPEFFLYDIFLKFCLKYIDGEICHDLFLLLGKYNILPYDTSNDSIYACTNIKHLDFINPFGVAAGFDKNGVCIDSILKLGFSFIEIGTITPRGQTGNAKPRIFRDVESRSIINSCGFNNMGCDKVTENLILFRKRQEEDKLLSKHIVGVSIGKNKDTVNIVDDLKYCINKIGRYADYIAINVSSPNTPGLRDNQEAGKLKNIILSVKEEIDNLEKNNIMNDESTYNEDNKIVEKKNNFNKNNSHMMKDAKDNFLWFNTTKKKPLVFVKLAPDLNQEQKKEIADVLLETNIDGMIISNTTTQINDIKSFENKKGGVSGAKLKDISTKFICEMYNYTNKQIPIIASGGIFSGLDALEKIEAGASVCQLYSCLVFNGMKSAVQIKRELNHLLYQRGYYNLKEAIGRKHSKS
Procedure: The screening of 40,400 compounds was conducted in 384-well plates by adapting the end-point assay reported before. First, 1 µL of 200 µM compound was transferred into 384-well plates using a Benchtop Multi-Pipetter EDR-384SR (Biotech Co., Ltd., Tokyo, Japan). […] Next, 38 µL of assay mix (100 mM HEPES-NaOH pH 7.5, 5% (v/v) glycerol, 150 mM NaCl, 0.05% (v/v) Triton X-100, 15 µM decylubiquinone (dUQ, Sigma), 120 µM 2,6-dichlorophenolindophenol (DCIP, Sigma), and 20 nM PfDHODH) were dispensed into all wells and mixed at 600 rpm for 1 min by a MixMate®® (Eppendorf). The reaction was started by the addition of 5 µL of 1.8 mM L-DHO (Sigma) as the substrate and mixed as described above for 20 s. The absorbance at 600 nm was recorded using a SpectraMax®® Paradigm®® Multi-Mode Microplate Reader (Molecular Devices) before (t0) and after 20 min (t20) incubation at room temperature. The readings at t0 were subtracted from t20, and PfDHODH inhibition was calculated as the inhibition relative to the negative and positive controls in a single-point assay. Hits were defined as compounds inhibiting more than 50% of PfDHODH activity at 4.5 µM. The quality of the screening system was evaluated by calculating statistical parameters: Z′-factor, S/N, S/B, SW, and CV, as previously reported. The IC50 values of the hit compounds were determined using the same assay system containing serial dilutions of each compound in triplicates (22.7, 6.8, 2.27, 0.68, 0.227, 0.068, 0.023, 0.007, 0.002, 0.0007 µM) using GraphPad Prism 8.0 software (GraphPad Software Inc., San Diego, CA, USA).

HsDHODH = molecular target: T2, HsDHODH (Homo sapiens, UniProt Q02127); assay: HsDHODH counter-assay; format: biochemical; details: purified recombinant HsDHODH, tested at 4.5 µM; read-out: IC50 DHODH Hs
T2 construct: made in house
T2 sequence (Q02127 whole entry): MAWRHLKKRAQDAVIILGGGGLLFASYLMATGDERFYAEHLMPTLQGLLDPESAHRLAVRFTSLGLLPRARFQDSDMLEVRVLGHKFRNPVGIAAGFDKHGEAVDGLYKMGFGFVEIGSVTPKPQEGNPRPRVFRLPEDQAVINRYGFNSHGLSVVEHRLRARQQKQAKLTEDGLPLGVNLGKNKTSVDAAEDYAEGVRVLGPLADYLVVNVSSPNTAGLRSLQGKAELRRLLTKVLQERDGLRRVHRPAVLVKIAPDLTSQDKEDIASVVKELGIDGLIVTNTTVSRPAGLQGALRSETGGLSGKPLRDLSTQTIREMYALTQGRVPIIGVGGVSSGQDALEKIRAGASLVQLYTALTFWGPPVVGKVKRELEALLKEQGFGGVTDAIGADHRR
Procedure: Selected hit compounds from PfDHODH screening were tested for potential inhibition against HsDHODH at 4.5 µM. The HsDHODH used in this study was purified as previously reported. The HsDHODH assay was performed similarly to that for PfDHODH, but in an assay mix consisting of 50 mM Tris-HCl pH 8.0, 0.1% (v/v) Triton X-100, 2 mM potassium cyanide (KCN, Wako), 60 µM dUQ, and 120 µM DCIP, with the reaction started by the addition of 200 µM L-DHO (final concentration) in triplicate. For this assay, DMSO was used as a negative control and 10 µM of lapachol was used as a positive control (100% inhibition). The relative inhibition was calculated as described above.

[1] = molecular target: mammalian mitochondrial complexes I–III (Bos taurus, UniProt P00157+P03887+P17694+P42026); assay: NADH-cytochrome c reductase (complexes I–III) activity assay; format: biochemical; details: bovine heart mitochondria, range tested 0.0007 to 22.7 µM; read-out: IC50 Mammalian Mitochondrial CI–III
Procedure: (§1) Bovine heart mitochondria were prepared as previously described. The NADH-cytochrome c reductase (complexes I–III) and succinate-cytochrome c reductase (complexes II–III) activities were assayed in 384-well plates following an established protocol with small modifications. Complex I–III activity was assayed in a reaction mix containing 50 mM phosphate buffer pH 7.4, 2 mM KCN, 200 µM cytochrome c (cytochrome c from horse heart, Nacalai tesque), and 15 µg/mL mitochondria. Plates containing 1 µL serial dilutions of PfDHODH inhibitors were prepared and mixed with 38 µL of the reaction mix, as described above. The reaction was started by the addition of 5 µL of 2.6 mM NADH, and the assay was performed as described for PfDHODH, but at 550 nm and with 15 min of incubation. Complex II–III activity was assayed similarly to complex I–III activity but with 100 µM cytochrome c and 25 µg/mL mitochondria, and the reaction was started by 10 mM succinate. For both assays, DMSO and 5 µM ascochlorin were used as negative and positive controls, respectively. Assays were performed in triplicate.

[2] = molecular target: mammalian mitochondrial complexes II–III (Bos taurus, UniProt P00157+P35720+Q3T189+Q95123); assay: succinate-cytochrome c reductase (complexes II–III) activity assay; format: biochemical; details: bovine heart mitochondria, range tested 0.0007 to 22.7 µM; read-out: IC50 Mammalian Mitochondrial CII–III
Procedure: as §1

P. falciparum 3D7 = assay: In vitro antimalarial assay (PfLDH/diaphorase); format: cell-based; details: Plasmodium falciparum, growth inhibition, 72 h, 0.0003 to 10 µM, read-out: EC50 Pf3D7
Procedure: This assay was conducted using human red blood cells (RBC) following the guidelines of the ethics committee of Nagasaki University (permission no. 19). Human RBC was obtained from the Japanese Red Cross Society. The P. falciparum 3D7 strain was cultured in 2% hematocrit type O human RBC in RPMI-1640 medium (Gibco) supplemented with 23.8 mM sodium bicarbonate (Wako), 50 mg/L hypoxanthine (Wako), 25 mg/L gentamycin (Sigma), and 0.5% (w/v) AlbuMAX®® II (Gibco) under a 5% O2, 5% CO2, and 90% N2 atmosphere at 37 °C. Parasites were synchronized with 5% (w/v) D-sorbitol (Wako).
Synchronized ring-stage parasites at 0.3% parasitemia and 2% hematocrit were cultured in a 384-well plate at 25 µL with test compounds at a final concentration in the range of 0.0003 to 10 µM with a fixed DMSO concentration of 0.4% (v/v). Parasite growth was monitored by the diaphorase-coupled P. falciparum lactate dehydrogenase (PfLDH) assay, as previously described. After 72 h, 70 µL of the assay solution (150 mM lithium L-lactate (Wako), 0.05 mg/mL 3-acetylpyridine adenine dinucleotide (Oriental Yeast Co., Ltd., Tokyo, Japan), 0.2 mg/mL nitro blue tetrazolium (Wako), 1 unit/mL diaphorase, and 100 mM Tris-HCl pH 8.0) were mixed with the parasite culture and incubated at room temperature for 40 min, and the generated nitro blue formazan was measured at 650 nm using a SpectraMax®® Paradigm®® Multi-Mode Microplate Reader. […] The EC50 was calculated using GraphPad Prism 8.0 software from the mean of quadruplets values.

[3] = Cytotoxicity assay, HDF (Cell Counting Kit-8); format: cell-based; details: human dermal fibroblast (HDF) cells, normal human dermal fibroblasts
Procedure: (§2) Human dermal fibroblast cells (HDF, Zenbio, Inc., Durham, NC, USA) were cultured in Dulbecco’s Modified Eagle Medium/Nutrient Mixture F-12 medium (DMEM/F12, Gibco), human pancreatic carcinoma cells (PANC-1, DS Pharma Biomedical, Co., Ltd.) were cultured in DMEM (Gibco), and human colorectal adenocarcinoma cells (DLD-1, Taiho Pharmaceutical Company) were cultured in RPMI-1640 medium (FUJIFILM Wako Pure Chemicals). The culture mediums were supplemented with 10% (v/v) heat-inactivated fetal bovine serum (Gibco) and the cells were maintained at 37 °C under 5% CO2.
(§3) HDF, PANC-1, and DLD-1 were seeded at 2.5 × 10^4 cells/well on a 96-well plate and incubated at 37 °C under 5% CO2 overnight. The cells were then washed with PBS and the medium was replaced with 99 µL of fresh media. Then, 1 µL of the compounds or DMSO was added to the respective wells. As controls, wells containing 1% (v/v) DMSO in column 1 and wells containing only the culture medium in column 12 were used as the negative and positive controls, respectively. After 48 h of incubation, the cells were washed with PBS, and 99 µL of fresh media was replaced, followed by the addition of 10 µL of Cell Counting Kit-8 (Dojindo) to each well. After 3 h of incubation, the absorbance was measured at 450 nm using a SpectraMax®® Paradigm®® Multi-Mode microplate Reader. The calculation of cell viability in the test well was based on the absorbance of control wells according to the manufacturer’s protocol. The mean of quadruplet values was used to calculate the CC50 using GraphPad Prism 8.0 software.

[4] = Cytotoxicity assay, PANC-1 (Cell Counting Kit-8); format: cell-based; details: PANC-1 human pancreatic carcinoma cells
Procedure: as §2, §3

[5] = Cytotoxicity assay, DLD-1 (Cell Counting Kit-8); format: cell-based; details: DLD-1 human colorectal adenocarcinoma cells
Procedure: as §2, §3

| SMILES | IC50 (PfDHODH) [µM] | IC50 (HsDHODH) [µM] | IC50 [1] [µM] | IC50 [2] [µM] | EC50 (P. falciparum 3D7) [µM] | EC50 at 48 h [3] [µM] | EC50 at 48 h [4] [µM] | EC50 at 48 h [5] [µM] |
| --- | --- | --- | --- | --- | --- | --- | --- | --- |
| CC(=O)NCCCCCOc1cccc(-c2ccc3c(c2)SC(=N)N2CCCN=C32)c1 [Compound 26] | 3.49 ± 0.21 | > 4.5 | > 22.7 | > 22.7 | > 10 | > 10 | > 10 | > 10 |
| FC(F)(F)c1ccc2c(c1)SN1CCCN=C21 [Compound 29] | 9.71 ± 0.29 | > 4.5 | > 22.7 | > 22.7 | > 10 | > 10 | > 10 | > 10 |
| CC(=O)Nc1cccc(-c2ccc3c(c2)SC(=N)N2CCCN=C32)c1 [Compound 23] | 1.85 ± 0.19 | > 4.5 | > 22.7 | > 22.7 | > 10 | > 10 | > 10 | > 10 |
| c1cncc(-c2ccc3c(c2)SN2CCCN=C32)c1 [Compound 35] | 1.48 ± 0.07 | > 4.5 | > 22.7 | > 22.7 | > 10 | > 10 | > 10 | > 10 |
| CS(=O)(=O)Nc1cccc(-c2ccc3c(c2)SC(=N)N2CCCN=C32)c1 [Compound 24] | 1.94 ± 0.07 | > 4.5 | > 22.7 | > 22.7 | > 10 | > 10 | > 10 | > 10 |
| N=C1Sc2ccc(-c3ccccc3)cc2C2=NCCCN12 [Compound 9] | 0.76 ± 0.08 | > 4.5 | > 22.7 | > 22.7 | > 10 | > 10 | > 10 | > 10 |
| Oc1ccc(-c2ccc3c(c2)SN2CCCN=C32)cc1 [Compound 38] | 1.81 ± 0.01 | > 4.5 | > 22.7 | > 22.7 | > 10 | > 10 | > 10 | > 10 |
| Oc1cccc(-c2ccc3c(c2)SN2CCCN=C32)c1 [Compound 41] | 1.44 ± 0.05 | > 4.5 | > 22.7 | > 22.7 | > 10 | > 10 | > 10 | > 10 |
| N=C1Sc2cc(-c3cccc4ccccc34)ccc2C2=NCCCN12 [Compound 2] | 0.85 ± 0.05 | > 4.5 | 13.9 ± 2.14 | > 22.7 | > 10 | > 10 | > 10 | > 10 |
| CC(=O)Nc1ccc2c(c1)SN1CCCN=C21 [Compound 28] | 18.5 ± 0.4 | > 4.5 | > 22.7 | > 22.7 | > 10 | > 10 | > 10 | > 10 |
| N=C1Sc2cc3ccccc3cc2C2=NCCCN12 [Compound 11, 2,3,4,6-tetrahydro-7-thia-1,5-diazatetraphen-6-imine] | 6.42 ± 0.09 | > 4.5 | > 22.7 | > 22.7 | > 10 | > 10 | > 10 | > 10 |
